Converted amounts (≈) assume the structure as drawn. Where a SMILES comes first, the peptide text is derived from it.
Assays:
[1] = test system: pepsin; experiment: Remaining amount by RP-HPLC after pepsin treatment; format: in vitro ADME; settings: pepsin (isolated protease); pepsin treated for 3 h; read-out RP-HPLC; Table S2
Experimental: (§3) To test whether the variants were tolerant to trypsin or other digestive enzymes, the amount of the remaining McC and its analogues remaining was determined by RP-HPLC after trypsin, pepsin, and chymotrypsin treated for 3 h (Table S2), and the inhibition zones of trypsin-treated variants were tested using the same method (Table 2).

[2] = test system: E. coli K88; experiment: microbe, parasite or virus in culture; format: cell-based; settings: agar diffusion; for antimicrobial activity after trypsin treatment, K88 / Diameters of the inhibition zones, Trypsin-Treated Group, K88: supernatant treated with trypsin 50 μg/mL, 37 °C, 3 h; for Diameters of the inhibition zones, Trypsin-Untreated Group, K88: 200 μL fermentation supernatant, 1 × 10^5 CFU/mL, 4 °C 1 h then 37 °C 24 h, chloramphenicol 100 μL of 0.25 μg/mL; for Diameters of the inhibition zones, Trypsin-Untreated Group, K88 / Diameters of the inhibition zones, Trypsin-Treated Group, K88: dash = no zone; for Diameters of the inhibition zones, Trypsin-Treated Group, K88: pH 6.8, 37 °C 24 h
Experimental: (§1) The pH was adjusted to 6.8.
(§2) The fermentation supernatants and pure products were used to characterize the bacteriostatic effects of McC variants by the agar diffusion and microdilution methods. Yej^+rimL^− and E. coli K88 indicator bacteria were applied. The serotype of E. coli K88 was O149:K91, K88ac, a clinically isolated strain, and provided by the College of Veterinary Medicine, China Agricultural University. The indicated bacteria were diluted to 1 × 10^5 CFU/mL and added to plate medium cooled to 50 °C. Two hundred microliters of supernatants were added to each dish, and diffusion was performed at 4 °C for 1 h. After incubation at 37 °C for 24 h, the diameters of the inhibition zones were determined. One hundred microliters of 0.25 μg/mL chloramphenicol was used as a control. The MICs of the pure McC variants were determined by microdilution in a sterilized 96-well microplate. The McC variants were serially diluted 2 times in 96-well microplates with LB medium. The concentrations of the McC variants ranged from 0.125 to 100 µg/mL. Each well was inoculated with 10 μL of overnight bacterial culture at a concentration of 1.0 × 10^5 CFU/mL and incubated at 37 °C for 24 h. A microplate reader was used to automatically observe changes in absorbance at 600 nm in order to monitor bacterial growth. A positive control group (including inoculated medium) and a negative control group (with medium only) were included. The MIC was determined as the lowest concentration of McC variant that inhibited bacterial growth (preventing an increase in the absorbance reading). All tests were performed in triplicate.

[3] = test system: chymotrypsin; experiment: Remaining amount by RP-HPLC after chymotrypsin treatment; format: in vitro ADME; settings: chymotrypsin (isolated protease); chymotrypsin treated for 3 h; read-out RP-HPLC; Table S2
Experimental: as §3

[4] = Remaining amount by RP-HPLC after pepsin treatment; format: in vitro ADME; settings: isolated enzyme pepsin; pepsin treated for 3 h; read-out RP-HPLC; Table S2
Experimental: as §3

[5] = test system: Yej^+rimL^− strain; format: cell-based; settings: HPLC-purified variants; microdilution in LB, 96-well; 0.125 to 100 µg/mL; 1.0 × 10^5 CFU/mL; 37 °C 24 h; absorbance 600 nm; triplicate
Experimental: To accurately characterize the bacteriostatic abilities of the variants, the MICs of the pure McC variants toward the McCsensitive strain Yej^+rimL^− were determined. The MICs of all variants were lower than that of wild-type McC. From smallest to largest MIC, the above five variants were in the following order: R2A, R2T, R2Q, R2S, and R2H. […] Although the diameter of the inhibitory zone of R2M was smaller than those of the above five variants, the bacteriostatic ability of R2M was second only to R2T/R2Q, and the MIC was 50 μg/mL.
as §2

[6] = test system: Yej^+rimL^− strain; experiment: organism not typed; format: cell-based; settings: agar diffusion; for bacteriostatic activity after trypsin treatment, Yej^+rimL^− / Diameters of the inhibition zones, Trypsin-Treated Group, Yej^+rimL^−: supernatant treated with trypsin 50 μg/mL, 37 °C, 3 h; for Diameters of the inhibition zones, Trypsin-Untreated Group, Yej^+rimL^−: 200 μL fermentation supernatant, 1 × 10^5 CFU/mL, 4 °C 1 h then 37 °C 24 h, chloramphenicol 100 μL of 0.25 μg/mL; for Diameters of the inhibition zones, Trypsin-Untreated Group, Yej^+rimL^− / Diameters of the inhibition zones, Trypsin-Treated Group, Yej^+rimL^−: dash = no zone; for Diameters of the inhibition zones, Trypsin-Treated Group, Yej^+rimL^−: pH 6.8, 37 °C 24 h
Source text: To analyze the antimicrobial ability of the variants, we measured the inhibition zones of all 21 variants by the agar diffusion method. The peptide moiety of McC was recognized by a YejABEf-peptide transporter. The rimL contains an acetyltransferase domain homologous to MccE which can detoxify and provide resistance to McC [17]. The overexpression of the YejABEF gene cluster and rimL gene knockout made the strain hypersensitive to McC. Therefore, the Yej^+rimL^− strain was selected as the sensitive indicator bacterial strain.
as §1, §2

[7] = test system: indicator bacteria; settings: second to seventh codons of mccA replaced; cited from earlier work
Source text: The heptapeptide precursor of McC, f-MRTGNAN, is encoded by the first gene in the mcc gene clusters, mccA [11]. Considering its protein nature, it is suitable for gene-based peptide engineering. Kazakov et al. first applied site-directed mutagenesis on the mccA gene, systematically replacing the second to seventh codons of mccA encoding 19 standard amino acids for a total of 114 mutations.

[8] = HPLC retention time according to hydrophobicity; format: physicochemical; settings: chromatographic, C18 5 μm 9.4 × 250 mm; A 0.1% trichloroacetic acid, B 0.1% trichloroacetic acid with 90% acetonitrile; linear 5% B to 50% B; 1 mL/min; 35 °C; 280 nm; varies according to hydrophobicity
Experimental: To find the separation peaks of the variants, wildtype McC and blank control fermentation broth samples were tested by HPLC. The separation peaks with obvious differences (those with retention times of 11 min and 17 min) were purified and the antimicrobial activity was determined. […] Therefore, the molecular weight was further analyzed by mass spectrometry, and the separation peak at approximately 17 min was confirmed to be that of the desired purified McC. Since the mutations in this study involved only one amino acid and had few effects on the properties of the peptides, we predicted that the separation peaks of the variants should fluctuate around approximately 17 min according to their hydrophobicity. […] The purity of the purified variants was determined by HPLC to be greater than 80% (Table 3).
The lyophilized supernatants were dissolved in deionized water, filtered through 0.22 μm aqueous-phase filter membranes, and purified by high-performance liquid chromatography (HPLC, Agilent Technologies Inc., Palo Alto, CA, USA) with C18 column (5 μm 9.4 × 250 mm, Agilent Technologies Inc., Palo Alto, CA, USA). The mobile phase was composed of 0.1% (v/v) trichloroacetic acid (solvent A) and 0.1% (v/v) trichloroacetic acid with 90% (v/v) acetonitrile (solvent B). A linear gradient from 95% A/5% B to 50% A/50% B was used with a flow rate of 1 mL/min, a sample volume of 10 μL, a column temperature of 35 °C, and a detection wavelength of 280 nm. Electrospray ionization mass spectrometry (ESI-MS) was used to compare the McC variant masses with the expected masses. The relationships between the relative abundances and the mass-to-charge ratios (m/z) of the ions were determined to confirm the identities of the experimentally produced McC variants.

[9] = Remaining amount by RP-HPLC after chymotrypsin treatment; format: in vitro ADME; settings: isolated enzyme chymotrypsin; chymotrypsin treated for 3 h; read-out RP-HPLC; Table S2
Experimental: as §3

Row | SMILES | remaining at 3 h [1] [%] | bacteriostatic effect on indicator strain K88 ([2]; fermentation supernatant, not trypsin-treated) | remaining at 3 h [3] [%] | remaining at 3 h [4] [%] | MIC [5] [µg/mL] | antimicrobial activity after trypsin treatment, K88 [2] | Diameters of the inhibition zones, Trypsin-Untreated Group, K88 [2] [mm] | Diameters of the inhibition zones, Trypsin-Treated Group, K88 [2] [mm] | bacteriostatic activity after trypsin treatment, Yej^+rimL^− [6] | Diameters of the inhibition zones, Trypsin-Untreated Group, Yej^+rimL^− [6] [mm] | Diameters of the inhibition zones, Trypsin-Treated Group, Yej^+rimL^− [6] [mm] | antimicrobial activity of mccA substitution variants [7] | Retention Time [8] [min] | remaining at 3 h [9] [%]
1 | CSCC[C@H](NC=O)C(=O)N[C@@H](CS)C(=O)N[C@H](C(=O)NCC(=O)N[C@@H](CC(N)=O)C(=O)N[C@@H](C)C(=O)N[C@@H](CC(=O)O)C(=O)NP(=O)(OCCCN)OC[C@H]1O[C@@H](n2cnc3c(N)ncnc32)[C@H](O)[C@@H]1O)[C@@H](C)O (stereo partly shown) [R2C] (HELM PEPTIDE1{[O=C[*:2]].M.C.T.G.N.A.[NCCCOP(=O)(NC(=O)[C@H](CC(=O)O)N[*:1])OC[C@H]1O[C@@H](n2cnc3c(N)ncnc32)[C@H](O)[C@@H]1O]}$$$$V2.0) | 82.5 ± 0.98 | no bacteriostatic effects | 40.9 ± 1.22 | – | – | – | – | – | – | – | – | – | – | –
2 | CSCC[C@H](NC=O)C(=O)N[C@@H](Cc1c[nH]cn1)C(=O)N[C@H](C(=O)NCC(=O)N[C@@H](CC(N)=O)C(=O)N[C@@H](C)C(=O)N[C@@H](CC(=O)O)C(=O)NP(=O)(OCCCN)OC[C@H]1O[C@@H](n2cnc3c(N)ncnc32)[C@H](O)[C@@H]1O)[C@@H](C)O (stereo partly shown) [R2H] (HELM PEPTIDE1{[O=C[*:2]].M.H.T.G.N.A.[NCCCOP(=O)(NC(=O)[C@H](CC(=O)O)N[*:1])OC[C@H]1O[C@@H](n2cnc3c(N)ncnc32)[C@H](O)[C@@H]1O]}$$$$V2.0) | – | – | – | 82.29 ± 0.52 | >100 | retained their antimicrobial activity | 15.55 | 11.99 | exhibited antibacterial effects | 18.39 | 15.92 | bacteriostatic | 16.872 | 42.7 ± 0.69
3 | CSCC[C@H](NC=O)C(=O)N[C@@H](CCSC)C(=O)N[C@H](C(=O)NCC(=O)N[C@@H](CC(N)=O)C(=O)N[C@@H](C)C(=O)N[C@@H](CC(=O)O)C(=O)NP(=O)(OCCCN)OC[C@H]1O[C@@H](n2cnc3c(N)ncnc32)[C@H](O)[C@@H]1O)[C@@H](C)O (stereo partly shown) [R2M] (HELM PEPTIDE1{[O=C[*:2]].M.M.T.G.N.A.[NCCCOP(=O)(NC(=O)[C@H](CC(=O)O)N[*:1])OC[C@H]1O[C@@H](n2cnc3c(N)ncnc32)[C@H](O)[C@@H]1O]}$$$$V2.0) | – | – | – | 88.7 ± 0.93 | 50 (≈ 43.4 µM) | – | 12.37 | – | exhibited antibacterial effects | 21.57 | 14.31 | loss of antimicrobial activity | 19.622 | 43.8 ± 0.68
4 | CSCC[C@H](NC=O)C(=O)N[C@@H](CO)C(=O)N[C@H](C(=O)NCC(=O)N[C@@H](CC(N)=O)C(=O)N[C@@H](C)C(=O)N[C@@H](CC(=O)O)C(=O)NP(=O)(OCCCN)OC[C@H]1O[C@@H](n2cnc3c(N)ncnc32)[C@H](O)[C@@H]1O)[C@@H](C)O (stereo partly shown) [R2S] (HELM PEPTIDE1{[O=C[*:2]].M.S.T.G.N.A.[NCCCOP(=O)(NC(=O)[C@H](CC(=O)O)N[*:1])OC[C@H]1O[C@@H](n2cnc3c(N)ncnc32)[C@H](O)[C@@H]1O]}$$$$V2.0) | – | – | – | 84.33 ± 0.77 | 100 (≈ 90.2 µM) | retained their antimicrobial activity | 13.46 | 9.44 | exhibited antibacterial effects | 17.35 | 16.34 | bacteriostatic | 17.004 | 41.3 ± 1.27
